Results reported in US9464073B2, “Pyrimidine hydroxy amide compounds as HDAC6 selective inhibitors” (Acetylon Pharmaceuticals, Inc., priority 2014, dated 2016).
Entries after “also recorded” stand apart in the source; their conditions may differ.

Tests used:
HDAC1 = HDAC1 (Homo sapiens (Human), UniProt Q13547); test: HDAC enzyme assay (HDAC1); assay type: biochemical
Protocol: (§1) Compounds for testing were diluted in DMSO to 50 fold the final concentration and a ten point three fold dilution series was made. The compounds were diluted in assay buffer (50 mM HEPES, pH 7.4, 100 mM KCl, 0.001% Tween-20, 0.05% BSA, 20 μM TCEP) to 6 fold their final concentration. The HDAC enzymes (purchased from BPS Biosciences) were diluted to 1.5 fold their final concentration in assay buffer. The tripeptide substrate and trypsin at 0.05 μM final concentration were diluted in assay buffer at 6 fold their final concentration. The final enzyme concentrations used in these assays were 3.3 ng/ml (HDAC1), 0.2 ng/ml (HDAC2), 0.08 ng/ml (HDAC3) and 2 ng/ml (HDAC6). The final substrate concentrations used were 16 μM (HDAC1), 10 μM (HDAC2), 17 μM (HDAC3) and 14 μM (HDAC6).
(§2) Five μl of compounds and 20 μl of enzyme were added to wells of a black, opaque 384 well plate in duplicate. Enzyme and compound were incubated together at room temperature for 10 minutes. Five μl of substrate was added to each well, the plate was shaken for 60 seconds and placed into a Victor 2 microtiter plate reader. The development of fluorescence was monitored for 60 min and the linear rate of the reaction was calculated. The IC50 was determined using Graph Pad Prism by a four parameter curve fit.

HDAC2 = HDAC2 (Homo sapiens (Human), UniProt Q92769); test: HDAC enzyme assay (HDAC2); assay type: biochemical
Protocol: as §1, §2

HDAC3 = HDAC3 (Homo sapiens (Human), UniProt O15379); test: HDAC enzyme assay (HDAC3); assay type: biochemical
Protocol: as §1, §2

HDAC6 = HDAC6 (Homo sapiens (Human), UniProt Q9UBN7); test: HDAC enzyme assay (HDAC6); assay type: biochemical
Protocol: as §1, §2

[1] = Rat pharmacokinetic studies; assay type: in vivo; conditions: plasma, male SD rats; for clearance: IV 1 mg/kg; for bioavailability: PO 5 mg/kg vs IV 1 mg/kg, dose adjusted AUC
Protocol: Male SD rats were fasted overnight. Compounds of the invention as well as two previously known HDAC6 inhibitors, Compounds A and B were dissolved in dimethyl acetamide at 10 times the final concentration, then Solutol HS 15 (BASF) was added to a final concentration of 10%. Finally 80% saline was added and vortexed to achieve a clear solution. For the IV dosing three animals were injected via the foot dorsal vein with 1 mg/kg compound. For the PO dosing 5 mg/kg of compound was delivered by oral gavage. Blood was collected via the tail vein into K2EDTA tubes at 5 minutes, 15 minutes, 30 minutes, 1 hour, 2 hours, 4 hours, 8 hours and 24 hours after dosing. The blood was centrifuged at 2000 g for 5 minutes at 4° C. to obtain plasma. The plasma was extracted with acetonitrile and the level of compound was analyzed by LC/MS/MS. The level of compound in plasma was calculated from a standard curve in rat plasma. The IV clearance and area under the curve were calculated using WinNonLin software. The dose adjusted area under the curve for the IV and oral dosing were used to calculate the oral bioavailability. Compounds A and B, previously known HDAC6 inhibitors, are shown below (See, e.g., U.S. Pat. No. 8,614,223): […]

[2] = Mouse pharmacokinetic studies; assay type: in vivo; conditions: male C57BL/6 mice, IV 1 mg/kg, from AUC in plasma and brain; for Kp: mouse, read-out: Mouse plasma/brain ratio
Protocol: Male C57BL/6 mice were fasted overnight. Compounds of the invention as well as two previously known HDAC6 inhibitors, Compounds A and B, were dissolved in dimethyl acetamide at 10 times the final concentration, then Solutol HS 15 (BASF) was added to a final concentration of 10%. Finally 80% saline was added and vortexed to achieve a clear solution. Fifteen animals were injected via the tail vein with 1 mg/kg compound. Blood was collected by retro-orbital bleed at 5 minutes, 15 minutes, 30 minutes, 1 hour, 2 hours, 4 hours, 8 hours and 24 hours after dosing. At 5 minutes, 30 minutes, 1 hour and 4 hours after dosing three animals per time point were sacrificed and brains were removed. The blood was centrifuged at 2000 g for 5 minutes at 4° C. to obtain plasma. Brain samples were homogenized in PBS. The plasma and brain homogenate were extracted with acetonitrile and the level of compound was analyzed by LC/MS/MS. The level of compound in plasma was calculated from a standard curve in rat plasma and the level in brain was calculated from a standard curve in brain homogenate. The area under the curve in plasma and brain were calculated using WinNonLin software. The brain to plasma ratio was determined using the area under the curve values for the two compartments.

taxol treated rats = test: Taxol induced neuropathic pain study in rats (Von Frey testing); assay type: in vivo, rat
Protocol: This study included a histology endpoint in addition to the von Frey testing for paw sensitivity.
Neuropathic pain is induced by a 0.5 ml/kg injection of Taxol (2 mg/kg) administered IP on days 0-12. The development of neuropathic pain is confirmed by measuring mechanical allodynia (Von Frey test) on study day 13.
Allodynic response to tactile stimulation is assessed using the Von Frey apparatus (Touch Test®).
The rat will be placed in an enclosure and positioned on a metal mesh surface, but allowed to move freely. The rats' cabins are covered with red cellophane to diminish environmental disturbances. The test begins after a cessation of exploratory behavior. The set of Von Frey monofilaments provide an approximate logarithmic scale of actual force and a linear scale of perceived intensity.
The operating principle: when the tip of a fiber of given length and diameter is pressed against the skin at right angles, the force of application increases as long as the researcher continues to advance the probe until the fiber bends. After the fiber bends, the probe continues to advance, causing the fiber to bend more, but without additional force being applied. […] The Touch Test™ Sensory Evaluator can be used on the plantar surfaces of the rat's foot. The animal indicates sensation by pulling back its paw. The minimal force needed to elevate the withdrawal reflex is considered/designated as the value of reference. In order to achieve paw withdrawal, the pressure applied is sometimes greater than 60 g, often requiring the researcher to apply enough pressure with the Von Frey filament to actually lift the paw of the naive animal. Decreases in force needed to induce withdrawal are indicative of allodynia, as the force applied is a non-painful stimulus under normal conditions.

HDAC1, sequence (Q13547 whole entry): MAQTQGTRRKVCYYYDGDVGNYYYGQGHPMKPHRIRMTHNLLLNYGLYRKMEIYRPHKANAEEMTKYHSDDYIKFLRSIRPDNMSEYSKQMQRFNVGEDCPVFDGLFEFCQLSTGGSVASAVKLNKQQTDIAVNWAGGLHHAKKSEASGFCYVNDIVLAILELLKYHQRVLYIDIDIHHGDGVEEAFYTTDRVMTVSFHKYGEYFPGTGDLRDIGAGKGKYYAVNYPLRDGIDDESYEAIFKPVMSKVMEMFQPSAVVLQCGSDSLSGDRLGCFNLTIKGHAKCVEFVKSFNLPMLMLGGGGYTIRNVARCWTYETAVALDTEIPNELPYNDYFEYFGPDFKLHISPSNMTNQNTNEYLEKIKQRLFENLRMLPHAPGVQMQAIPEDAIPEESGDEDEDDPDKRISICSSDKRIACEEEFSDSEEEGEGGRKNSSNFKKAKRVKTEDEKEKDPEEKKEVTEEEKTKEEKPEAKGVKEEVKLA
HDAC3, sequence (O15379 whole entry): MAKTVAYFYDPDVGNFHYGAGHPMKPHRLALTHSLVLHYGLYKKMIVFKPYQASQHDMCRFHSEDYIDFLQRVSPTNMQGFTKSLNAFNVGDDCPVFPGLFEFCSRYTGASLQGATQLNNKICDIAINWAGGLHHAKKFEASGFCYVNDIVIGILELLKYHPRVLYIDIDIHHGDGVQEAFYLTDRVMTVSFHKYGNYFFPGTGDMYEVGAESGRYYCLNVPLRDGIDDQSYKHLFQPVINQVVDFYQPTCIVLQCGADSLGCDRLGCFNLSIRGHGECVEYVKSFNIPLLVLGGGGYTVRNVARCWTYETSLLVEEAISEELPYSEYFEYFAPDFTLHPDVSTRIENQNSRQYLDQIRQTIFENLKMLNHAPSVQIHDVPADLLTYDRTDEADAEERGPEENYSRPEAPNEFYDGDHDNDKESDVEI
HDAC3, sequence (Q9Y618 395-489 partner): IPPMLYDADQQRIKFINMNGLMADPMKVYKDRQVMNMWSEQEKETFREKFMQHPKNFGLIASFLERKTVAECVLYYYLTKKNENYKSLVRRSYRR
HDAC6, sequence (Q9UBN7 whole entry): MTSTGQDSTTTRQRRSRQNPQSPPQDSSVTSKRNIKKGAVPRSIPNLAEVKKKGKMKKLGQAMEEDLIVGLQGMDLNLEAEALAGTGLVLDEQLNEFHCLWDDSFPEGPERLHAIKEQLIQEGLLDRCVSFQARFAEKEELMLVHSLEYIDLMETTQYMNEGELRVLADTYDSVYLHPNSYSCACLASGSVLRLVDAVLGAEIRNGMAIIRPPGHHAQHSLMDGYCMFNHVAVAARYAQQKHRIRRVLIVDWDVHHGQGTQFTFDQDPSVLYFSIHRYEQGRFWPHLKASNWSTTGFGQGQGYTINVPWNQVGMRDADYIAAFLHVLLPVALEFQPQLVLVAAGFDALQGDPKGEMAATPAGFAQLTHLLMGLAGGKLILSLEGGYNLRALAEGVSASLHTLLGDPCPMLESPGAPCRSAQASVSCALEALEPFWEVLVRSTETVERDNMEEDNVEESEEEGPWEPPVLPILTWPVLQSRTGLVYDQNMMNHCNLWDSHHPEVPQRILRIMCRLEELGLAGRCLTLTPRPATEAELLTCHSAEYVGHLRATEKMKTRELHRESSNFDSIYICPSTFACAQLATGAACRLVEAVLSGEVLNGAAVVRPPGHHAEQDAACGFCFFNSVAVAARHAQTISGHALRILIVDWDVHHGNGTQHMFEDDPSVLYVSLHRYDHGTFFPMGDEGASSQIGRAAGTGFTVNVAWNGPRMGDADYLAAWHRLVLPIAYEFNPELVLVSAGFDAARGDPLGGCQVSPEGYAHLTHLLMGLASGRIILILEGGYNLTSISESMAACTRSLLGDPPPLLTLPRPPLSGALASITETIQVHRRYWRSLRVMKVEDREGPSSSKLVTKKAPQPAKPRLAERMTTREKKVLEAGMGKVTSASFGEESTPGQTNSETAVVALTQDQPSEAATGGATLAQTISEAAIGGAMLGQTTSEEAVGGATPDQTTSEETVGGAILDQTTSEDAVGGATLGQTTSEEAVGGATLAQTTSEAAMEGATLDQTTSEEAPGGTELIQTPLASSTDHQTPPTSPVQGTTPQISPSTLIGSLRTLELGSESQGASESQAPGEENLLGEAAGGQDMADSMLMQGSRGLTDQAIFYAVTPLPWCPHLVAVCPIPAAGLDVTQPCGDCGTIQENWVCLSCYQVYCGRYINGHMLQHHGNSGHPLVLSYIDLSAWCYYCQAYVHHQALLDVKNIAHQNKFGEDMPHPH
HDAC2, sequence (Q92769 whole entry): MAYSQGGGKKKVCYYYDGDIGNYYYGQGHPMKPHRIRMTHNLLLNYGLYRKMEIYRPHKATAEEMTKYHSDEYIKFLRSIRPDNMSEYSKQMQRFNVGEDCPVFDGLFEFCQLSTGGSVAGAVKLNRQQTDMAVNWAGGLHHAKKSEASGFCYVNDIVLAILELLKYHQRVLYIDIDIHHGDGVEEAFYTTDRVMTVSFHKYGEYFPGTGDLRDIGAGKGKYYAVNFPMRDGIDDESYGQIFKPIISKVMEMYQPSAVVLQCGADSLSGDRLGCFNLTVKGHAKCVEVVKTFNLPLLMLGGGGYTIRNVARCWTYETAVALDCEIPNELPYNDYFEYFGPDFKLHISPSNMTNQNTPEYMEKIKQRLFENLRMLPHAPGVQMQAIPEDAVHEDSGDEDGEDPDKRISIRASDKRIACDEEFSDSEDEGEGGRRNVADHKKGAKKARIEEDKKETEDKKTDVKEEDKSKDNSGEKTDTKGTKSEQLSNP

## O=C(NO)c1cnc(NC2(c3cc(F)cc(F)c3)CCCCC2)nc1 [Compound 001]
HDAC1
  IC50: 1040 nM
HDAC2
  IC50: 870 nM
HDAC3
  IC50: 6200 nM
HDAC6
  IC50: 2.9 nM
[1]
  clearance: 91.7 mL/min/kg
  bioavailability: 11.1%
[2]
  Kp: 2.55

## O=C(NO)c1cnc(NC2(c3cc(F)ccc3F)CCOCC2)nc1 [Compound 002]
HDAC1
  IC50: 117 nM
HDAC2
  IC50: 108 nM
HDAC3
  IC50: 671 nM
HDAC6
  IC50: 2.4 nM
[1]
  clearance: 93.3 mL/min/kg
  bioavailability: 18.4%
[2]
  Kp: 0.45

## O=C(NO)c1cnc(NC2(c3ccccc3)CCC(F)(F)CC2)nc1 [Compound 003]
HDAC1
  IC50: 961 nM
HDAC2
  IC50: 982 nM
HDAC3
  IC50: 4380 nM
HDAC6
  IC50: 3.7 nM
[1]
  clearance: 61.7 mL/min/kg
  bioavailability: 41.5%
[2]
  Kp: 0.67
Taxol treated rats; 1 mg/kg PO b.i.d., study day 15
  withdrawal force (Von Frey): 58.30 ± 1.70 g
Taxol treated rats; study day 13 pre-dosing, last dose on day 12 (b.i.d.)
  mean group withdrawal force (Von Frey): 41.10 ± 5.88 g
Taxol treated rats; taxol treated rats, 1, 3, 10 mg/kg PO b.i.d.
  reversal of nociception / tactile allodynia: completely reversed nociception; also recorded: reduced tactile allodynia

## O=C(NO)c1cnc(NC2(c3cccc(F)c3)CCC3(CC2)OCCO3)nc1 [Compound 004]
HDAC1
  IC50: 703 nM
HDAC2
  IC50: 833 nM
HDAC3
  IC50: 1820 nM
HDAC6
  IC50: 3.9 nM

## O=C(NO)c1cnc(NC2(c3ccccc3)CC2)nc1 [Compound A, reference compound]
[1]
  clearance: 100 mL/min/kg
  bioavailability: 16.5%
[2]
  Mouse plasma/brain ratio: 1.23

## O=C(NO)c1cnc(NC2(c3cccc(F)c3)CCCCC2)nc1 [Compound B, reference compound]
[1]
  clearance: 38.3 mL/min/kg
  bioavailability: 7.9%
[2]
  Mouse plasma/brain ratio: 1.28

## NCC1(CC(=O)O)CCCCC1 [gabapentin, reference compound]
Taxol treated rats; 150 mg/kg IP, 2 hours post dosing, study day 13
  withdrawal force (Von Frey): 58.30 ± 1.70 g
Taxol treated rats; 150 mg/kg IP, 2 hours post dosing, study day 14
  withdrawal force (Von Frey): 60.00 ± 0.00 g
Taxol treated rats; 150 mg/kg IP, 2 hours post dosing, study day 15
  withdrawal force (Von Frey): 58.30 ± 1.70 g
